Among the data in patent publication US20240150334A1, “HSD17B13 INHIBITORS AND/OR DEGRADERS” (Pfizer Inc., priority 2022, published 2024) are IC50 values, retold here.

The target in experiment [1] is wild type human HSD17B13 (Homo sapiens (Human), UniProt Q7Z5P4). Put plainly: HEK_Beta-Est LCMS_IC50_Tekcel, whole-cell HEK-HSD17B13 inhibition assay, estrone production by LCMS. Type of experiment: cell-based. To be noted: geometric mean, HEK cells stably expressing wild type human HSD17B13, 25 μM FAC beta-estradiol, read-out: HEK_Beta-Est LCMS_IC50—Tekcel GMean IC50. A digest of the protocol:
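Readout was LCMS quantitation of estrone made from beta-estradiol with NAD+ as cofactor. Whole HEK-HSD17B13 cells were given compound for 1 hour, then the reaction for 2 hours, both at 37° C. Product area ratios were normalized to vehicle controls as zero percent effect.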

In experiment [2] the target is HSD17B13 enzyme (Homo sapiens (Human), UniProt Q7Z5P4). Put plainly: hHSD17B13 IC50 Assay (FAC beta-estradiol), purified protein enzyme activity assay with NAD(P)H-Glo luciferase readout. Type of experiment: biochemical. Conditions: geometric mean, 12 μM FAC beta-estradiol, 500 μM NAD+, read-out: hHSD17B13_IC50 GMean IC50. On the procedure: The following protocols may of course be varied by those skilled in the art. hHSD17B13 IC50 Assay (FAC beta-estradiol)
Chain of HSD17B13 enzyme (Q7Z5P4 20-300): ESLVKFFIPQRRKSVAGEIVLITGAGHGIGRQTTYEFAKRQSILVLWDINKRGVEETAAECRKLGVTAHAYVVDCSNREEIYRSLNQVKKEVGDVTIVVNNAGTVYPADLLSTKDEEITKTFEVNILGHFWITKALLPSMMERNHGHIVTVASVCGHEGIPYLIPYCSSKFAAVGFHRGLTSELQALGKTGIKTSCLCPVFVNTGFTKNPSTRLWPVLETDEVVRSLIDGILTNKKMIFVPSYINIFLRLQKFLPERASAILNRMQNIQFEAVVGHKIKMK
HSD17B13 enzyme inhibition potency of test compounds was determined using a purified protein biochemical enzyme activity assay, using NAD(P)H-Glo luciferase readout (Promega). HSD17B13 enzyme uses the oxidized form of nicotinamide adenine dinucleotide (NAD+) as a cofactor during metabolism of Beta-Estradiol (substrate) to […], while converting NAD+ to the reduced form (NADH). The Promega NAD(P)H-Glo™ assay is a homogeneous bioluminescent assay that generates a light signal from biochemical reactions that contain NADH (or nicotinamide adenine dinucleotide phosphate, NADPH). In the presence of NADH (or NADPH), the enzyme Reductase reduces a proluciferin reductase substrate to form luciferin. Luciferin then is quantified using Ultra-Glo™ Recombinant Luciferase (rLuciferase), and the light signal produced is proportional to the amount of NAD(P)H in the sample. […] The reaction was initiated by the addition of 2 μL/well purified HSD17B13 protein (30 nM FAC in assay buffer). Compound, substrate mix and HSD17B13 protein was incubated in the dark at room temperature for 2 hours before the addition of 3 μL/well NAD(P)H-Glo detection reagent, prepared from luciferase detection reagent and reductase/reductase substrate, as per manufacturer's instructions (Promega, G9061). Detection reagent was incubated in the dark for 1 hour at room temperature before plates were read on the Envision plate reader (Perkin Elmer) using a luminescent protocol. Data expressed as relative luminescent units (RLUs) were then normalized to control wells using Activity Base (IDBS). Zero percent effect (ZPE) was defined as RLUs generated from uninhibited HSD17B13 protein (vehicle control).

Molecules are shown by their SMILES. Counter-ions that a name gives are not always drawn.

Chain of wild type human HSD17B13 (Q7Z5P4 20-300): as above

The term IC50 denotes the midpoint of a concentration-inhibition curve. On to `Cc1ccc2nn([C@H]3CC[C@H](CNC(=O)c4cc(F)c(O)c(F)c4)CC3)cc2c1` [Example 131, 3,5-difluoro-4-hydroxy-N-{[(1r,4r)-4-(5-methyl-2H-indazol-2-yl)cyclo-hexyl]methyl} benzamide], for which the IC50 in experiment [1] stood at 0.27 µM; in experiment [2], 0.027 µM.
In the same order, the values of `O=C(NC[C@H]1CC[C@H](n2cc3cc(Cl)ncc3n2)CC1)c1cc(F)c(O)c(F)c1` [Example 187, N-{[(1r,4r)-4-(5-chloro-2H-pyrazolo[3,4-c]pyridin-2-yl)cyclohexyl]methyl}-3,5-difluoro-4-hydroxybenzamide] are 0.4 µM and 0.01 µM.
In the case of `O=C(NC[C@H]1CC[C@H](n2cc3cc(C(F)(F)F)ncc3n2)CC1)c1cc(F)c(O)c(F)c1` [Example 147, 3,5-difluoro-4-hydroxy-N-({(1r,4r)-4-[5-(trifluoromethyl)-2H-pyrazolo[3,4-c]pyridin-2-yl]cyclohexyl}methyl) benzamide, ammonium salt], the IC50 amounted to 0.43 µM in experiment [1] and 0.017 µM in experiment [2].
As to `Cn1cc(-c2ccc3cn([C@H]4CC[C@H](CNC(=O)c5cc(F)c(O)c(F)c5)CC4)nc3c2)c(C(F)F)n1` [Example 34, N-{[(1r,4r)-4-{6-[3-(difluoromethyl)-1-methyl-1H-pyrazol-4-yl]-2H-indazol-2-yl}cyclohexyl]methyl}-3,5-difluoro-4-hydroxybenzamide], the IC50 in experiment [1] turned out to be 0.31 µM; in experiment [2], 0.0043 µM.
Take `CN1CCN(c2ccc3cn([C@H]4CC[C@H](CNC(=O)c5cc(F)c(O)c(F)c5)CC4)nc3c2)CC1` [Example 136, 3,5-difluoro-4-hydroxy-N-({(1r,4r)-4-[6-(4-methyl-piperazin-1-yl)-2H-indazol-2-yl]cyclohexyl}methyl) benzamide, ammonium salt]: the IC50 in experiment [1] was found to be 0.3 µM; in experiment [2] it was 0.015 µM.
With `CCn1cc(-c2ccc3cn([C@H]4CC[C@H](CNC(=O)c5cc(F)c(O)c(F)c5F)CC4)nc3c2)cn1` [Example 150, N-({(1r,4r)-4-[6-(1-ethyl-1H-pyrazol-4-yl)-2H-indazol-2-yl]cyclohexyl}methyl)-2,3,5-trifluoro-4-hydroxybenzamide, trifluoroacetate salt], the IC50 in experiment [1] turned out to be 0.12 µM; in experiment [2], 0.0048 µM.
With `COc1cccc(-c2ccc3cn([C@H]4CC[C@H](CNC(=O)c5cc(F)c(O)c(F)c5)CC4)nc3c2)c1` [Example 64, 3,5-difluoro-4-hydroxy-N-({(1r,4r)-4-[6-(3-methoxyphenyl)-2H-indazol-2-yl]cyclohexyl}methyl) benzamide], the figures for the IC50 in experiment [1] and in experiment [2] were 0.35 µM and 0.0056 µM, respectively.
`O=C(NC[C@]12CC[C@](n3cc4cc(C(F)(F)F)ccc4n3)(CC1)CC2)c1cc(F)c(O)c(F)c1F` [Example 193, 2,3,5-trifluoro-4-hydroxy-N-({4-[5-(trifluoromethyl)-2H-indazol-2-yl]bicyclo [2.2.2]octan-1-yl}methyl)benzamide]: the half-inhibitory concentration (IC50) in experiment [1] came to 0.44 µM; in experiment [2], 0.022 µM.
Take `O=C(NC[C@H]1CC[C@H](n2cc3ccc(-c4ccccn4)cc3n2)CC1)c1cc(F)c(O)c(F)c1` [Example 75, 3,5-difluoro-4-hydroxy-N-({(1r,4r)-4-[6-(pyridin-2-yl)-2H-indazol-2-yl]cyclohexyl}methyl)benzamide]: the IC50 in experiment [1] amounted to 0.21 µM; in experiment [2], 0.019 µM.
In the case of `CC(C)n1cc(-c2ccc3cn([C@H]4CC[C@H](CNC(=O)c5cc(F)c(O)c(F)c5)CC4)nc3c2)cn1` [Example 40, 3,5-difluoro-4-hydroxy-N-{[(1r,4r)-4-{6-[1-(propan-2-yl)-1H-pyrazol-4-yl]-2H-indazol-2-yl}cyclohexyl]methyl} benzamide], the IC50 in experiment [1] worked out at 0.16 µM; in experiment [2] it was 0.0043 µM.
On the same counts, the results for `O=C(NC[C@H]1CC[C@H](n2cc3ccc(-c4ncccn4)cc3n2)CC1)c1cc(F)c(O)c(F)c1` [Example 24, 3,5-difluoro-4-hydroxy-N-({(1r,4r)-4-[6-(pyrimidin-2-yl)-2H-indazol-2-yl]cyclohexyl}methyl) benzamide] are 0.12 µM and 0.014 µM.
As for `Cc1ccc(-c2ccc3cn([C@H]4CC[C@H](CNC(=O)c5cc(F)c(O)c(F)c5)CC4)nc3c2)nn1` [Example 63, 3,5-difluoro-4-hydroxy-N-({(1r,4r)-4-[6-(6-methylpyridazin-3-yl)-2H-indazol-2-yl]cyclohexyl}methyl) benzamide], the IC50 in experiment [1] came to 0.37 µM; in experiment [2], 0.011 µM.
In the same order, the values of `O=C(NC[C@H]1CC[C@H](c2nc(-c3ccc(C(F)(F)F)nc3)no2)CC1)c1cc(F)c(O)cc1F` [Example 197, 2,5-difluoro-4-hydroxy-N-{[(1r,4r)-4-{3-[6-(trifluoromethyl)pyridin-3-yl]-1,2,4-oxadiazol-5-yl}cyclohexyl]methyl} benzamide] are 0.47 µM and 0.039 µM.
`O=C(NC[C@H]1CC[C@H](n2cc3cc(C(F)(F)F)ccc3n2)CC1)c1cc(F)c(O)c(F)c1` [Example 181, 3,5-difluoro-4-hydroxy-N-({(1r,4r)-4-[5-(trifluoromethyl)-2H-indazol-2-yl]cyclohexyl}methyl) benzamide]: the 50% inhibitory concentration (IC50) was 0.23 µM in experiment [1] and 0.016 µM in experiment [2].
For `O=C(NC[C@H]1CC[C@H](n2cc3ccccc3n2)CC1)c1cc(F)c(O)c(F)c1` [Example 22, 3,5-difluoro-4-hydroxy-N-{[(1r,4r)-4-(2H-indazol-2-yl)cyclohexyl]methyl} benzamide], the IC50 was found to be 0.39 µM in experiment [1] and 0.02 µM in experiment [2].
`O=C(NC[C@]12CC[C@](c3nc(-c4cnc(C(F)(F)F)cn4)no3)(CC1)CC2)c1ccc(O)c(F)c1F` [Example 177, 2,3-difluoro-4-hydroxy-N-[(4-{3-[5-(trifluoromethyl)pyrazin-2-yl]-1,2,4-oxadiazol-5-yl}bicyclo[2.2.2]octan-1-yl)methyl]benzamide]: the IC50 in experiment [1] was found to be 0.37 µM; in experiment [2] it was 0.017 µM.
Regarding `O=C(NC[C@]12CC[C@](c3noc(-c4ccc(OS(=O)(=O)F)cc4)n3)(CC1)CC2)c1cc(F)c(O)c(F)c1` [Example 126, 4-(3-{4-[(3,5-difluoro-4-hydroxybenzamido)methyl]bicyclo[2.2.2]octan-1-yl}-1,2,4-oxadiazol-5-yl) phenyl sulfurofluoridate], the half-maximal inhibitory concentration (IC50) amounted to 0.43 µM in experiment [1] and 0.016 µM in experiment [2].
For the compound `O=C(NC[C@H]1CC[C@H](c2noc(-c3cc4ccccn4n3)n2)CC1)c1cc(F)c(O)c(F)c1` [Example 176, 3,5-difluoro-4-hydroxy-N-({(1r,4r)-4-[5-(pyrazolo[1,5-a]pyridin-2-yl)-1,2,4-oxadiazol-3-yl]cyclohexyl}methyl) benzamide], the results for the concentration for half-maximal inhibition (IC50) in experiment [1] and in experiment [2] were 0.19 µM and 0.011 µM, respectively.
Regarding `CN1CCn2ncc(-c3ccc4cn([C@H]5CC[C@H](CNC(=O)c6cc(F)c(O)c(F)c6)CC5)nc4c3)c21` [Example 41, 3,5-difluoro-4-hydroxy-N-({(1r,4r)-4-[6-(1-methyl-2,3-dihydro-1H-imidazo[1,2-b]pyrazol-7-yl)-2H-indazol-2-yl]cyclohexyl}methyl) benzamide], the figures for the concentration for half-maximal inhibition (IC50) in experiment [1] and in experiment [2] were 0.44 µM and 0.021 µM, respectively.
Turning to `Cn1cc(-c2ccc3cn([C@H]4CC[C@H](CNC(=O)c5cc(F)c(O)c(F)c5)CC4)nc3c2)c(F)n1` [Example 51, 3,5-difluoro-N-({(1r,4r)-4-[6-(3-fluoro-1-methyl-1H-pyrazol-4-yl)-2H-indazol-2-yl]cyclohexyl}methyl)-4-hydroxybenzamide], the figures for the 50% inhibitory concentration (IC50) in experiment [1] and in experiment [2] were 0.12 µM and 0.0065 µM, respectively.
Regarding `O=C(NC[C@H]1CC[C@H](c2nc3ccccc3o2)CC1)c1cc(F)c(O)c(F)c1` [Example 1, N-{[(1r,4r)-4-(1,3-Benzoxazol-2-yl)cyclohexyl]methyl}-3,5-difluoro-4-hydroxybenzamide], the IC50 in experiment [1] was determined as 0.49 µM; in experiment [2], 0.014 µM.
In the case of `Cn1ccc(-c2ccc3c(c2)CN([C@H]2CC[C@H](CNC(=O)c4cc(F)c(O)c(F)c4)CC2)C3=O)n1` [Example 20, 3,5-Difluoro-4-hydroxy-N-({(1r,4r)-4-[5-(1-methyl-1H-pyrazol-3-yl)-1-oxo-1,3-dihydro-2H-isoindol-2-yl]cyclohexyl}methyl)benzamide], the half-maximal inhibitory concentration (IC50) was 0.49 µM in experiment [1] and 0.016 µM in experiment [2].
For the compound `O=C(NC[C@H]1CC[C@H](n2cc3ccc(-c4cnn5c4OCC5)cc3n2)CC1)c1cc(F)c(O)c(F)c1` [Example 37, N-({(1r,4r)-4-[6-(2,3-dihydropyrazolo[5,1-b][1,3]oxazol-7-yl)-2H-indazol-2-yl]cyclohexyl}methyl)-3,5-difluoro-4-hydroxybenzamide], the IC50 in experiment [1] amounted to 0.15 µM; in experiment [2], 0.0084 µM.
